Test results published in PubChem BioAssay (NCI).
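Method: 48-hour compound exposure of cells in 96-well plates, five concentrations, linear interpolation of endpoints. TGI: concentration producing complete growth inhibition.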

Key:
Experiment in all cases: DTP human tumour cell line panel, 48 h
EKVX NSCLC = test system: EKVX NSCLC
TK-10 renal = test system: TK-10 renal
SNB-19 CNS = test system: SNB-19 CNS
MDA-N = test system: MDA-N
SF-539 CNS = test system: SF-539 CNS
SK-MEL-28 melanoma = test system: SK-MEL-28 melanoma
SR leukemia = test system: SR leukemia
PC-3 prostate = test system: PC-3 prostate
ACHN renal = test system: ACHN renal
HS 578T breast = test system: HS 578T breast
K-562 leukemia = test system: K-562 leukemia
MDA-MB-435 = test system: MDA-MB-435
SK-MEL-5 melanoma = test system: SK-MEL-5 melanoma
OVCAR-3 ovarian = test system: OVCAR-3 ovarian
LOX IMVI melanoma = test system: LOX IMVI melanoma
MDA-MB-231 breast = test system: MDA-MB-231 breast

Structure (SMILES) | TGI (EKVX NSCLC) [µM] | TGI (TK-10 renal) [µM] | TGI (SNB-19 CNS) [µM] | TGI (MDA-N) [µM] | TGI (SF-539 CNS) [µM] | TGI (SK-MEL-28 melanoma) [µM] | TGI (SR leukemia) [µM] | TGI (PC-3 prostate) [µM] | TGI (ACHN renal) [µM] | TGI (HS 578T breast) [µM] | TGI (K-562 leukemia) [µM] | TGI (MDA-MB-435) [µM] | TGI (SK-MEL-5 melanoma) [µM] | TGI (OVCAR-3 ovarian) [µM] | TGI (LOX IMVI melanoma) [µM] | TGI (MDA-MB-231 breast) [µM]
O=C(NCC(C(=O)OCc1ccccc1)C(=O)OCc1ccccc1)OCc1ccccc1 | > 100 | > 100 | > 100 | > 100 | > 100 | > 100 | > 100 | > 100 | > 100 | > 100 | > 100 | > 100 | > 100 | > 100 |  | 
Clc1ccccc1-c1nnc2c(-c3ccccc3)nc3ccccc3n12 | > 100 | > 100 | > 100 | > 100 | > 100 | > 100 | > 100 | > 100 | > 100 |  | > 100 | > 100 | > 100 | > 100 | > 100 | > 100
FC(F)(F)C1(C(F)(F)F)O[SiH]2(OC(C(F)(F)F)(C(F)(F)F)c3ccccc32)c2ccccc21 | 39.4 | 45.5 | > 100 |  | 25.4 | 72.6 | 37.8 |  | 78.8 |  | 31.6 |  |  | 40.6 |  | 
C=CCCCCCC(O)C(O)C/C=C\C/C=C\CC (stereo not given) | > 18.8 | > 18.8 | > 18.8 |  | > 18.8 | > 18.8 | > 18.8 |  | > 18.8 |  | > 18.8 |  | > 18.8 | > 18.8 | > 18.8 | 
O=C(CN1CCOCC1)Nc1ccc2c(c1)C1Oc3ccccc3CC1CO2 (stereo not given) | > 100 | > 100 | > 100 | > 100 | > 100 |  | > 100 | > 100 | > 100 |  | > 100 | > 100 | > 100 | > 100 | > 100 | > 100
Cc1ccc(S(=O)(=O)NC2=NS(=O)(=O)c3cc(C)c(Cl)cc3S2)cc1 | > 100 | > 100 | > 100 |  | > 100 | > 100 | > 100 | > 100 | > 100 | > 100 | > 100 | > 100 | > 100 | > 100 | > 100 | > 100
Nc1nc(Cl)cc(NCCCCCCCCCCCCNc2cc(Cl)nc(N)n2)n1 | > 100 | > 100 |  |  | 72.5 | 30 | > 100 |  |  |  | > 100 |  | 3.72 | > 100 | 14.5 | 
CCOC(=O)/C=C/c1c[nH]c(C(=O)OCC)c1 | > 100 |  | > 100 |  | > 100 | > 100 |  |  |  |  | > 100 |  | > 100 | > 100 | > 100 | 
CCSC(=O)/C=C1\CN(C(=O)OC(C)(C)C)C1C(=O)OC(C)(C)C (stereo not given) | 26 | 6.39 | 25.5 |  | 7.51 | 3.67 | 2.48 | 18.1 | 8.82 | 19.4 | 4.63 | 8.63 | 12.6 | 6.13 | 3.3 | 12.7
